This note sets out measurements from US6911475B1, “Use of nicotine or its derivatives in a drug for treating neurological disease, in particular Parkinson's disease” (Assistance Publique-Hopitaux de Paris, priority 1999, dated 2005).

Structures are written as SMILES. Like-named read-outs stand apart in the source and are kept apart here.

Experiment [1] concerns Parkinson's disease. As for the experimental part: (§1) The physical symptoms studied were: tremor, axial rigidity, gait and speech. The neuro-psychological symptoms were memory and sexual activity.
(§2) Over a period of six months, nicotine patches were administered to the patient, firstly using increasing doses over the first three months to reach a dose of 102 mg per day and then by combining two types of patch, namely a patch in the form of a slow release patch (patch P) and rapid release patches (patch R). Each patch P contained 21 mg of nicotine and each patch R contained 15 mg of nicotine.

Experiment [2] concerns Parkinson's disease. The protocol: as §1, §2
Overall, the daily dose was 21 mg the first month and stabilized at 102 mg from the fourth month, divided into 42 mg under slow release and 60 mg under rapid release.
Concomitantly, L-DOPA was administered in a decreasing dose with time; in contrast, the bromocriptine dose was unchanged and remained at 30 mg per day over the entire treatment, as shown in Table II below.
This is another data set of the same source.

Experiment [3] has as its system Parkinson's disease. The protocol: Clinical evaluation of the effect of the drug of the invention and of the treatment method was carried out using conventional UPDRS I, II and III neurological tests. These tests enabled both neuro-psychological and physical effects to be measured.
The UPDRS I test measures, on a scale of 0 to 4, mentation, behaviour and mood of the patient, taking into account the criteria of intellectual impairment, thought disorder, depression and motivation/initiative.
The UPDRS II test measures a series of sensory or motor physical tests, also on a scale of 0 to 4.
The UPDRS III test measures the motor activity of the patient, again on a scale of 0 to 4.
Zero indicates a normal state and four indicates maximum perturbation.
Clinical evaluation was based on the L-DOPA test and was carried out as follows:
The UPDRS test used is described below.
It consisted of halting the L-DOPA therapy to a zero dose 12 to 24 hours before the test.
The next day, every half hour, the condition and the clinical changes in the patient was measured during stoppage (“off” period, no L-DOPA) then the clinical changes during resumption (“on” period with L-DOPA). The time was measured using a chronometer.
This test was carried out with UPDRS measurements as described above: • motor UPDRS (Unified Parkinson's Disease Rating Scale); • UPDRS I (mental state of patient); • UPDRS II (daily life, on-off); ADL (activities of daily living); • Self-evaluation test (test carried out by the patient, verification and confirmation by physician of fluctuations in on-off periods during the day).
The source holds these as a separate data set.

Setting [4] is: Re-administer nicotine at 102 mg/kg/d, after a period without nicotine.

In the case of `CN1CCCC1c1cccnc1` (centres unmarked) [nicotine], the “Sexual problems and urinary dysfunction” value with Parkinson's disease [1] (after four months of treatment, problems present for two years) is recorded as “completely re-established functions”. Further, in the experiment on Parkinson's disease [1] (under nicotine treatment), the Depressive episodes entry is reported as “reduced” and the Memory disorders result is listed as “reduced”. In addition, the “Neuro-psychological manifestations of Parkinson's disease” value with Parkinson's disease [1] (within six months from commencing treatment) is listed as “disappeared completely”. Further, in the experiment on Parkinson's disease [2] (setting [4]), the Axial rigidity was 0, the Gait is listed as 0, the Speech was determined as 0 and the Tremor worked out at 1. In the experiment on Parkinson's disease [2] (With nicotine treatment), this compound gave an Axial rigidity of 0, a Gait of 0 and a Speech of 0. The Tremor with Parkinson's disease [2] (With nicotine treatment, patient, concomitant L-DOPA and 30 mg/day bromocriptine, 0 = normal, 4 = maximum perturbation) is given as 1. Moreover, in the experiment with Parkinson's disease [2] (nicotine treatment, Table III), the “Axial rigidity (in words)” value is recorded as “completely abolished”; the “Gait and speech (in words)” value is on record as “normalised”. For the same compound, the “Symptomatic effect of stopping administration of nicotine” value in the experiment on Parkinson's disease [2] (stopping nicotine in the eighth month) is reported as “no symptomatic effect”. For the same compound, the “UPDRS I (mental state)” value in the experiment on Parkinson's disease [3] (With nicotine treatment (6 months later), day 0 without nicotine: 10) is listed as 0. The “UPDRS II off (daily activity, ADL)” value in the experiment with Parkinson's disease [3] (With nicotine treatment (6 months later), off = no L-DOPA, day 0 without nicotine: 22) is reported as 10. Moreover, the “UPDRS II on (daily activity, ADL)” value in the experiment with Parkinson's disease [3] (With nicotine treatment (6 months later), on = with L-DOPA, day 0 without nicotine: 13) is 6. For the same compound, the “UPDRS score for the "off" periods (FIG. 2)” value with Parkinson's disease [3] (no L-DOPA, 30 mg bromocriptine, over nicotine treatment, except in the seventh month (nicotine interrupted)) is “reduction in the score”. In addition, in the experiment with Parkinson's disease [3] (with L-DOPA (250 mg first test, 187.50 mg after six months), 30 mg bromocriptine, over nicotine treatment), the “UPDRS measurements in the "on" periods (FIG. 2)” value is listed as “constant decrease”.
